Source: patent US20190175609A1, “THERAPEUTIC USES OF A C-RAF INHIBITOR” (Novartis AG, priority 2016, published 2019)

What was measured:
b-Raf = b-Raf (Homo sapiens, UniProt P15056); assay: b-Raf biochemical assay; conditions: read-out: b-Raf IC-50
c-Raf FL = c-Raf FL (Homo sapiens, UniProt P04049); assay: c-Raf FL biochemical assay; conditions: read-out: c-Raf FL IC-50
[1] = system: Calu-6 (KRAS Q61K), HCT116 (KRAS G13D); assay: cell-based anti-proliferative assay, Calu-6 and HCT116; conditions: Homo sapiens; range over Calu-6 and HCT116; read-out: IC50, inhibition of proliferation
[2] = system: Calu-6 (KRAS Q61K) xenografts; assay: Calu-6 xenograft in nude mice; assay type: in vivo
Procedure: Female nude tumor bearing Calu6 mice, n=6 per group were randomized into treatment groups on day 17 following tumor implantation, when the average tumor volume was 180 mm3. […] Dosing volume was 10 mL/kg. Tumor volumes were collected at the time of randomization and twice weekly thereafter for the study duration.
(§1) Regressions were also achieved in a second human NSCLC model, NCI-H358, at the 200 mg/kg QD dose in mice and in the human ovarian Hey-A8 xenograft at doses as low as 30 mg/kg QD in mice.

[3] = system: Calu-6 (KRAS Q61K) xenografts; assay: Calu-6 xenograft in nude rats; assay type: in vivo
[4] = system: NCI-H358 (KRAS G12C) xenografts; assay: NCI-H358 xenograft in mice; assay type: in vivo
Procedure: SCID beige female tumor bearing NCI-H358 mice, n=8 per group, were randomized into 3 groups 14 days post tumor cell inoculation with an average tumor volume range of 259.44-262.47 mm^3.
Tumor volumes were measured by digital caliper 3 times a week and body weights of all animals were recorded through the course of treatment.
as §1

[5] = system: Hey-A8 (KRAS G12D, BRAF G464E) xenografts; assay: Hey-A8 ovarian xenograft in mice; assay type: in vivo
Procedure: as §1

[6] = system: SKMEL30 cells (NRAS Q61K melanoma cells); assay: SKMEL30 NRAS-mutant melanoma xenograft in nude mice; assay type: in vivo; conditions: for % regression: day 21 post-implant (9 days of treatment)
Procedure: […]. Mice were randomized into treatment groups on day 12 post implantation, when the average tumor volume was ˜200 mm^3. […] Treatments began on day 12 and continued until day 21 post implantation. Tumor volume and body weights were collected at the time of randomization and twice per week for the study duration. Tumor volume was determined by measurement with calipers and calculated using a modified ellipsoid formula, where tumor volume (TV) (mm^3)=[((1×w2)×3.14159))/6], where 1 is the longest axis of the tumor and w is perpendicular to 1. Mice were monitored for tumor growth, body weight and body condition. Animal well-being and behavior were monitored twice weekly. General health of mice was monitored daily. The anti-tumor activity was determined by assessing % T/C or % regression on day 21 post-implant (9 days of treatment).

H727 Model = assay: H727 model, KRASmt NSCLC xenograft; assay type: in vivo, mice; conditions: FIGS. 15A, 15B, 15C (H358, Calu6, H727 models); H727: 100 mg/kg daily oral, 14 days
[7] = tolerability in KRAS- and NRAS-mutant xenograft models (body weight); assay type: in vivo; conditions: all xenograft models
Procedure: as §1

[8] = system: non-small cell lung cancer (NSCLC); assay: Phase I dose finding study of Compound A, single agent; assay type: in vivo, human; conditions: one NSCLC subject, 1200 mg QD, preliminary
Procedure: Provisional doses for dose escalation can be found in the Table below. […]
In the dose expansion part, patients in Compound A single agent arm are treated with Compound A at the recommended dose and regimen selected based on the dose escalation data. This dose is expected to be safe and tolerated in adult patients in all indications included in the trial. The single agent arm consists of 3 distinct groups: KRAS- and/or BRAF-mutant NSCLC, KRAS- and/or BRAF-mutant ovarian cancer, and patients with other solid tumors (which may be advanced) harboring MAPK pathway alteration(s) such as relapsed/refractory melanoma after failure of BRAFi/MEKi combination therapy and NRAS-mutant melanoma patients.
This was further confirmed by preliminary results obtained from the clinical trial.

[9] = predicted human PK of Compound A
[10] = cell-based anti-proliferative assay, melanoma and NSCLC lines; conditions: Homo sapiens, read-out: IC50, inhibition of proliferation
[11] = system: advanced NRAS-mutant melanoma; conditions: cited from earlier work
[12] = patients with NRAS-mutant melanoma

b-Raf, sequence (P15056 2-766): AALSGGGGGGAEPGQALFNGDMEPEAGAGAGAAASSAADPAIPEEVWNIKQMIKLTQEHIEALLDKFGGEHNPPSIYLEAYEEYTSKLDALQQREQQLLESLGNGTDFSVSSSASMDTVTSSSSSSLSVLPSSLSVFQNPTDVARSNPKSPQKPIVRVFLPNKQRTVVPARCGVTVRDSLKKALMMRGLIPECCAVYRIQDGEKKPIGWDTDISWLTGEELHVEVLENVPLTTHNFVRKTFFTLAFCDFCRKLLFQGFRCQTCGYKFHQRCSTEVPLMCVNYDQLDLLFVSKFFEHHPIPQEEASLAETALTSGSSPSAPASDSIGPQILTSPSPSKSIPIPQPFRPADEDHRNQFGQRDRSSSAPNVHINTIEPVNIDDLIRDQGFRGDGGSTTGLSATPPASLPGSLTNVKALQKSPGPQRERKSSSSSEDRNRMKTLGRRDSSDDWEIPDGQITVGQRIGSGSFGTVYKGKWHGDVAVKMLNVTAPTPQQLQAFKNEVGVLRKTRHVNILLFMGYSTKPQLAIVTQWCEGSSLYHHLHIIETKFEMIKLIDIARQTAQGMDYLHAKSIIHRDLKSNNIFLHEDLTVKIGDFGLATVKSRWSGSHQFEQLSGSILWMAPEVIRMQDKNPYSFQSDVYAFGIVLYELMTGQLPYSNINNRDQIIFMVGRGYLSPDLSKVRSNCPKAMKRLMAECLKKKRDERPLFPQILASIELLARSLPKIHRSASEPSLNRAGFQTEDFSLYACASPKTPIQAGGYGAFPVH
c-Raf FL, sequence (P04049 whole entry): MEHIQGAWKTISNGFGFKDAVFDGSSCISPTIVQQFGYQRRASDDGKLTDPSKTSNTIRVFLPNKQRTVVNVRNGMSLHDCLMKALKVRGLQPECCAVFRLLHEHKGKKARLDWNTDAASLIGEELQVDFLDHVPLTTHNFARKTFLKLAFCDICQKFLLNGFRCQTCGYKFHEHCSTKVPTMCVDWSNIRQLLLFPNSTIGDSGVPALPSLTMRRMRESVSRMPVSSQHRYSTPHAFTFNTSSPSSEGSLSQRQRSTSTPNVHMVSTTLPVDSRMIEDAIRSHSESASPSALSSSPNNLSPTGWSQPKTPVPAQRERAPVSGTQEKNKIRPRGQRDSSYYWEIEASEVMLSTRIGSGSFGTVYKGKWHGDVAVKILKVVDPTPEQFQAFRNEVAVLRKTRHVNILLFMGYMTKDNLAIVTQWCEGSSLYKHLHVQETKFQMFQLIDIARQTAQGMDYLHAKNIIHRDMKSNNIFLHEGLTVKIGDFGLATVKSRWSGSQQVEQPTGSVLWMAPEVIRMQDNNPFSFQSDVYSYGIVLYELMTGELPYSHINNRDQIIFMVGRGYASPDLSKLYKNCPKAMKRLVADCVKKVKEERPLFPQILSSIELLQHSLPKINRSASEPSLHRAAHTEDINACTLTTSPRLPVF

Work on `Cc1ccc(NC(=O)c2ccnc(C(F)(F)F)c2)cc1-c1cc(OCCO)nc(N2CCOCC2)c1` [COMPOUND A, N-(3-(2-(2-hydroxyethoxy)-6-morpholinopyridin-4-yl)-4-methylphenyl)-2-(trifluoromethyl)isonicotinamide] yielded an IC50 (b-Raf) of 0.73 nM, an IC50 (c-Raf FL) of 0.2 nM and an IC50 [1] of 200 to 1200 nM. For the same molecule, the anti-tumor effect ([2]; 30 mg/kg QD, mice) was “Tumor stasis”, the anti-tumor effect ([2]; 100, 200, and 300 mg/kg once daily (QD), nude mice) was “regressions” and the anti-tumor effect ([2]; Calu-6 xenograft, dose not stated) was “tumor regression”. The anti-tumor effect ([2]; Calu-6 xenograft, dose not stated, listed as Compound A) was “tumor regressions”, the anti-tumor effect ([3]; 35 mg/kg QD, rats) was “Tumor stasis” and the anti-tumor effect ([3]; 75 and 150 mg/kg QD, nude rats) was “regressions”. For the same molecule, the anti-tumor effect ([4]; 200 mg/kg QD, mice) was “Regressions”, the anti-tumor effect ([4]; NCI-H358 xenograft, dose not stated) was “tumor regression” and the anti-tumor effect ([4]; NCI-H358 xenograft, dose not stated, listed as Compound A) was “tumor regressions”. For the same molecule, the anti-tumor effect ([5]; Hey-A8 xenograft, dose not stated) was “tumor regression”, the anti-tumor effect ([5]; Hey-A8 xenograft, dose not stated, listed as Compound A) was “tumor regressions” and the anti-tumor effect ([5]; doses as low as 30 mg/kg QD, mice) was “Regressions”. For the same molecule, the “% regression” value ([6]; 25 mg/kg bid) was 48%, the “% regression” value ([6]; 100 mg/kg bid) was 59% and the tolerability ([6]; 25 and 100 mg/kg bid, body weight, toxicity signs, mortality) was “well tolerated”. The anti-tumor effect ([6]; SK-MEL-30 melanoma model, dose not stated) was “tumor regression”, the “single agent activity in KRASmt NSCLC models” value (H727 Model) was “showed single agent activity” and the “tolerability judged by body weight loss” value [7] was “well tolerated”. The “partial response according to RECIST” value [8] was −35%, the predicted half-life [9] was roughly 9 h and the IC50 [10] was 200 to 1200 nM.

In the case of `Cn1cnc2c(F)c(Nc3ccc(Br)cc3F)c(C(=O)NOCCO)cc21` [binimetinib], the “HR for PFS, in favor of binimetinib” value ([11]; binimetinib vs. dacarbazine) is given as 0.62 (0.47-0.80), the “discontinuation rate as a result of adverse events suspected to be related to study drug” value [11, 12] is given as 20% and the “median PFS (95% CI)” value [11, 12] is given as 2.8 (95% CI: 2.8-3.6). The overall response rate [11, 12] was 15% and the “overall survival (95% CI)” value [11, 12] was 11.0 (95% CI: 8.9-13.6) months.

In the case of `CN(C)/N=N/c1[nH]cnc1C(N)=O` [dacarbazine], the “discontinuation rate as a result of adverse events suspected to be related to study drug” value [11, 12] is listed as 5%.
